From ChEMBL document CHEMBL3596163, “Discovery of imidazo[1,5-a]pyridines and -pyrimidines as potent and selective RORc inverse agonists” (Bioorg Med Chem Lett, 2015)
The source made the active and inactive calls. The rule behind the calls is not given here.

Legend:
[1] = molecular target: T1, Bile acid receptor (Homo sapiens, UniProt Q96RI1); experiment: Agonist activity at GAL4-fused human FXR expressed in HEK293T cells assessed as activation of basal transcriptional activity after 20 hrs by dual-glo luciferase reporter gene assay; assay type: cell-based, HEK-293T
T1 sequence (Q96RI1 whole entry): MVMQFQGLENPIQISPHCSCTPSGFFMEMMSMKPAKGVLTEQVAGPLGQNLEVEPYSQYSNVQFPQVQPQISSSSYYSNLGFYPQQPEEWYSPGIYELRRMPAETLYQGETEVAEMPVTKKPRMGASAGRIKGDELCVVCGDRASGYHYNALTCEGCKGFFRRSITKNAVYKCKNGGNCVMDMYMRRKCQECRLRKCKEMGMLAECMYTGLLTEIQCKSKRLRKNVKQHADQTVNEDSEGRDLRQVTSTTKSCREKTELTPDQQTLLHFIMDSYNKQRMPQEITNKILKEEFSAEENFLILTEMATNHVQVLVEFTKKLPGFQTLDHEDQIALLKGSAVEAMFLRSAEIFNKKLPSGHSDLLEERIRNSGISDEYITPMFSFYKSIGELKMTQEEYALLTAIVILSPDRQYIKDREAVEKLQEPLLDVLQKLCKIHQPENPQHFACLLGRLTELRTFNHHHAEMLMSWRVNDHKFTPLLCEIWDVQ

[2] = molecular target: T2, Nuclear receptor subfamily 1 group I member 2 (Homo sapiens, UniProt O75469); experiment: Agonist activity at GAL4-fused human PXR expressed in HEK293T cells assessed as activation of basal transcriptional activity after 20 hrs by dual-glo luciferase reporter gene assay; assay type: cell-based, HEK-293T
T2 sequence (O75469 whole entry): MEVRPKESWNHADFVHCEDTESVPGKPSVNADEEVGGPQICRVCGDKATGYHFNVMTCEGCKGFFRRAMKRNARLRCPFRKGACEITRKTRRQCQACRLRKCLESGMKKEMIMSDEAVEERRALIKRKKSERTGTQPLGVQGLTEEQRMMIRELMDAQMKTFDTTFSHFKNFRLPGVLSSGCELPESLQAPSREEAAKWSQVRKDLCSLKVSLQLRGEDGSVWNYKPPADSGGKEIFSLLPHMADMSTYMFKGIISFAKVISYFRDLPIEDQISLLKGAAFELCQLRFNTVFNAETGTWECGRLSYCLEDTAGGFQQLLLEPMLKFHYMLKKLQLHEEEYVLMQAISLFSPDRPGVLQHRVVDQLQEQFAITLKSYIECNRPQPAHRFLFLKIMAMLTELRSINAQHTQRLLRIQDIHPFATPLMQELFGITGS

[3] = molecular target: T3, Nuclear receptor ROR-beta (Homo sapiens, UniProt Q92753); experiment: Inverse agonist activity at GAL4-fused human RORb expressed in HEK293T cells assessed as suppression of basal transcriptional activity after 20 hrs by dual-glo luciferase reporter gene assay; assay type: cell-based, HEK-293T
T3 sequence (Q92753 whole entry): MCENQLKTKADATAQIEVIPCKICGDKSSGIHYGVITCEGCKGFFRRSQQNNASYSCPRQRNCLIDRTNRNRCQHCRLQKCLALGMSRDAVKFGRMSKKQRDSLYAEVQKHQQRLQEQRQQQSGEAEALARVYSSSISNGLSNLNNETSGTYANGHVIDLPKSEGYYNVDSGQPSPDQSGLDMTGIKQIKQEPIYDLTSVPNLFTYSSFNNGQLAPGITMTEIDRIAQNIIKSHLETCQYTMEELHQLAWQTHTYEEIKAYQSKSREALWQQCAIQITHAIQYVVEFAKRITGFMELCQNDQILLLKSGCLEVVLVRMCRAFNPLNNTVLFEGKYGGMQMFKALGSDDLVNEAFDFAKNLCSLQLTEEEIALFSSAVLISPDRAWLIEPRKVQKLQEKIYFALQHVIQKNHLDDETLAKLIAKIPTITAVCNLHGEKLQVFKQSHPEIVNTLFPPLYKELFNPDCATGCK

[4] = test system: PBMC; experiment: Inhibition of IFNgamma production in human PBMC after 48 hrs by Sandwich ELISA; assay type: functional, cell-based
[5] = molecular target: T4, Bile acid receptor (Homo sapiens) (UniProt Q96RI1); experiment: Antagonist activity at GAL4-fused human FXR expressed in HEK293T cells assessed as inhibition of T0901317-induced basal transcriptional activity up to 10 uM after 20 hrs by dual-glo luciferase reporter gene assay; assay type: cell-based; conditions: HEK-293T
T4 sequence (whole entry): T1 sequence (Q96RI1 whole entry)

[6] = molecular target: T5, Oxysterols receptor LXR-beta (Homo sapiens) (UniProt P55055); experiment: Antagonist activity at GAL4-fused human LXRbeta expressed in HEK293T cells assessed as inhibition of T0901317-induced basal transcriptional activity up to 10 uM after 20 hrs by dual-glo luciferase reporter gene assay; assay type: cell-based; conditions: HEK-293T
T5 sequence (whole entry): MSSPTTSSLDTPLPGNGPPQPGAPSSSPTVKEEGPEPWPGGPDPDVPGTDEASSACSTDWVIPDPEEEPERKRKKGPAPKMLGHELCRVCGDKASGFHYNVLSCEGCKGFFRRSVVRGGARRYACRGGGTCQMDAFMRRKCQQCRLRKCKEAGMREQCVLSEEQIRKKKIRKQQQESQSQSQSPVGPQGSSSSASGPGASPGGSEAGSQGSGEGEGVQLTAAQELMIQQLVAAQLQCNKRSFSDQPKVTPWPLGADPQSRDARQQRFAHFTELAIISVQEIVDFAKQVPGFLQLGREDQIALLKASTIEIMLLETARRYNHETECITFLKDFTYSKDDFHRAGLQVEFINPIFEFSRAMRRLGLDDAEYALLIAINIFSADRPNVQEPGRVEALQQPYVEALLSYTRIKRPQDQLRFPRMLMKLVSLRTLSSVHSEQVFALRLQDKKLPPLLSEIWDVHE

[7] = molecular target: T6, Nuclear receptor ROR-gamma (Homo sapiens, UniProt P51449); experiment: Inverse agonist activity at GAL4-fused human RORc expressed in HEK293T cells assessed as suppression of basal transcriptional activity after 20 hrs by dual-glo luciferase reporter gene assay; assay type: functional, cell-based, HEK-293T
T6 sequence (P51449 whole entry): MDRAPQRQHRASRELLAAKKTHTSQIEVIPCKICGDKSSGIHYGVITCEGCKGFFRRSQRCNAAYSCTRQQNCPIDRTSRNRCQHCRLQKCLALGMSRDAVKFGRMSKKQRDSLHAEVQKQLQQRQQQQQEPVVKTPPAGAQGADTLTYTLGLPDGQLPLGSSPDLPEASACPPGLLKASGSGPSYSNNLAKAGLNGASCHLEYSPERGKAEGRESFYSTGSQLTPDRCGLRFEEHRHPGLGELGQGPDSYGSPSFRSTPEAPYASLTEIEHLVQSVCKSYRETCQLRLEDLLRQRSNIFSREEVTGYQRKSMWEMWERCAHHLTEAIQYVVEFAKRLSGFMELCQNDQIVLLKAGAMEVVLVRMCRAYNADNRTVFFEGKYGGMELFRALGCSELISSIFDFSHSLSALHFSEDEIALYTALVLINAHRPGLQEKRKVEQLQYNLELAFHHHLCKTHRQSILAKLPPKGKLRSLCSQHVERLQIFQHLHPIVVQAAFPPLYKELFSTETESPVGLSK

Compound | EC50 [1] [µM] | EC50 [2] [µM] | EC50 [3] [µM] | EC50 [4] [µM] | inhibition [5] | inhibition [6] | EC50 [7] [nM]
O=C(O)c1ccc(-c2nc(C(=O)c3c(Cl)cccc3C(F)(F)F)n3ccccc23)cc1 | > 10 | > 10 | > 10 | > 10 | inactive | inactive | –
O=C(O)c1ccc(-c2nc(C(=O)c3c(Cl)cccc3C3CC3)n3cccnc23)cc1O | > 10 | > 10 | > 10 | > 10 | inactive | inactive | 13
O=C(O)c1ccc(-c2nc(C(=O)c3c(Cl)cccc3C(F)(F)F)n3c2CCCC3)c(F)c1 | > 10 | > 10 | > 10 | > 10 | inactive | inactive | 36
O=C(O)c1ccc(-c2nc(C(=O)c3c(Cl)cccc3C(F)(F)F)n3ccccc23)cc1O | > 10 | > 10 | > 10 | > 10 | inactive | inactive | 4
O=C(O)c1ccc(-c2nc(C(=O)c3c(Cl)cccc3C3CC3)n3c2CCCC3)c(F)c1 | > 10 | > 10 | > 10 | > 10 | inactive | inactive | 26
O=C(O)c1ccc(-c2nc(C(=O)c3c(Cl)cccc3C(F)(F)F)n3ccccc23)c(F)c1 | > 10 | > 10 | > 10 | > 10 | inactive | inactive | 10
